{"source": "paper PMC7134594", "about": "(Chemistry & Biology, 2004)", "origin": "cited, not measured here", "test_system": "SARS-CoV", "data": [{"smiles": "CSC[C@H](NC(=O)COc1cccc2cnccc12)C(=O)N[C@@H](Cc1ccccc1)[C@H](O)C(=O)N1CSC[C@H]1C(=O)NC(C)(C)C", "note": "[KNI-272]", "values": [{"measurement": "inhibiting replication of SARS-CoV in vitro", "value": "ineffective"}]}, {"smiles": "NC(=O)c1ncn([C@@H]2O[C@H](CO)[C@@H](O)[C@H]2O)n1", "note": "[Ribavirin, ribavirin]", "values": [{"measurement": "anti-SARS-CoV activity in vitro", "value": "anti-SARS-CoV activity in vitro, but at concentrations that are cytotoxic"}]}, {"smiles": "CC(C)(C)NC(=O)[C@@H]1CN(Cc2cccnc2)CCN1C[C@@H](O)C[C@@H](Cc1ccccc1)C(=O)N[C@H]1c2ccccc2C[C@H]1O", "note": "[indinavir]", "values": [{"measurement": "inhibiting replication of SARS-CoV in vitro", "value": "ineffective"}]}, {"smiles": "Cc1cccc(C)c1OCC(=O)N[C@@H](Cc1ccccc1)[C@@H](O)C[C@H](Cc1ccccc1)NC(=O)[C@H](C(C)C)N1CCCNC1=O", "note": "[lopinavir]", "values": [{"measurement": "inhibiting replication of SARS-CoV in vitro", "value": "ineffective"}]}, {"smiles": "Cc1c(O)cccc1C(=O)N[C@@H](CSc1ccccc1)[C@H](O)CN1C[C@H]2CCCC[C@H]2C[C@H]1C(=O)NC(C)(C)C", "note": "[nelfinavir]", "values": [{"measurement": "EC50", "setting": "read-out: EC50, inhibition of SARS-CoV replication", "value": 48, "unit": "nM"}]}, {"smiles": "CC(C)c1nc(CN(C)C(=O)N[C@H](C(=O)N[C@@H](Cc2ccccc2)C[C@H](O)[C@H](Cc2ccccc2)NC(=O)OCc2cncs2)C(C)C)cs1", "note": "[ritonavir]", "values": [{"measurement": "inhibiting replication of SARS-CoV in vitro", "value": "ineffective"}]}, {"smiles": "CC(C)(C)NC(=O)[C@@H]1C[C@@H]2CCCC[C@@H]2CN1C[C@@H](O)[C@H](Cc1ccccc1)NC(=O)[C@H](CC(N)=O)NC(=O)c1ccc2ccccc2n1", "note": "[saquinavir]", "values": [{"measurement": "inhibiting replication of SARS-CoV in vitro", "value": "ineffective"}]}]}
